Assay results: patent US7979117B2, “Device and method for controlled delivery of active substance into the skin” (Power Paper Ltd., priority 2001, dated 2011)
Where “and” joins values, the source holds several entries; their conditions need not be identical. Identical values can stand only once.

Assay: Dual chamber in-vitro skin penetration test (iontophoresis vs passive)
Format: in vitro ADME, Porcine
Text: One type of skin penetration test can be implemented in-vitro by using excised swine skin membrane with two electrodes placed thereon, with one of the two being associated with a formulation including an active substance to be delivered by iontophoresis, as described, for example in: P. Glikfeld, C. Cullander, R. S. Hinz, and R. H. Guy, A new system for in vitro studies of iontophoresis, Pharm. Res. 5: 443-446 (1988) (hereinafter, the “dual chamber in-vitro test”). Description of the experimental design of an in-vitro skin penetration test is provided in Example No. 1. In a non-limiting way, any of the following parameters can be varied and tested with this model: voltage, current and current density, concentration of an active substance, pH, viscosity, concentration of a buffer, concentration of an electrolyte, concentration of a polymeric substance which is used to render certain rheological properties, conductivity, viscosity and adhesiveness. The influence of pore size and density of a substrate can also be assessed in a modified in-vitro skin penetration test. Delivery of the active substance into and through the skin will be determined as a function of the time of current passage.
Example No. 1 was devised to define, in a preclinical study, the optimal iontophoretic parameters for the delivery of an active substance contained in a cosmetic carrier into the skin, while minimizing systemic exposure.
In general, the active agent is formulated in a buffered, conducting solution, gel, cream, or any other optional cosmetically acceptable carrier. Competing ions are kept to a minimum. Iontophoresis is performed in vertical diffusion cells, in which the skin membrane separates the physically- and electrically-isolated anode and cathode chambers from the receptor phase, or in modified side-by-side cells of a newer design. The anode and receptor compartments contain physiologically-buffered saline at pH 7, while the cathode compartment is charged with the gel containing the active.
The skin membrane is from the porcine ear (Alternatively, human (cadaver) or nude mouse skin can be used). The skin is excised with a dermatome set to an approximate depth of 500 μm. The area of skin exposed in each electrode compartment is 0.64 cm^2.
The electrodes transmitting the electrical current are made of Ag/AgCl or graphite, prepared in a customary fashion. A constant current is passed between the electrodes and controlled by a custom-built power supply (Professional Design and Development Services, Berkeley, Calif.).
In each study, preparation, with electrical current (“Iontophoretic System”) and without electrical current (“Control”), are tested. Exposure period is 20-30 minutes. Six replicates are performed per experiment. Prior to each experiment, the viability and integrity of skin barrier function is checked via a measurement of transepidermal water loss (TEWL).
At the end of the exposure period, the entire receptor compartment is drained and the solution reserved for subsequent analysis of the active agent(s) (“Active”). The skin is removed, and the surfaces carefully cleaned and dried. Subsequently, the stratum corneum (“SC”) beneath the cathode chamber is removed by repeated 15 adhesive tape strippings (“TS”). The Active is extracted from the respective tapes and assayed to yield a total uptake of the compound into the SC. The remaining SC-stripped skin from beneath the cathode is then appropriately treated so as to recover the Active, which had crossed the SC barrier, during iontophoresis, and reached into the underlying epidermis/upper dermis. The Active is determined quantitatively using customary analytical procedures (e.g., HPLC, UV spectrum, GC, radiolabeled detection, etc.), as applicable.
Results of an In-Vitro Skin Penetration Test for Magnesium Ascorbyl Phosphate (MAP) Aqueous Solution, Using the “Dual Chamber In-Vitro Test”
Active Substance: Magnesium Ascorbyl Phosphate (MAP) (Vitamin C Derivative) […]

[1] = Iontophoretic System, 3% in distilled water, 25 mg applied, pH 7.0-7.4, 0.150 mA/cm^2, 30 minutes, individual cell
[2] = Iontophoretic System, 3%, 0.150 mA/cm^2, 30 minutes, Mean of 6 cells
[3] = Passive Control (without electrical current)

## O=C1O[C@H]([C@@H](O)CO)C([O-])=C1OP(=O)([O-])[O-].O=C1O[C@H]([C@@H](O)CO)C([O-])=C1OP(=O)([O-])[O-].[Mg+2].[Mg+2].[Mg+2] [MAP, Magnesium Ascorbyl Phosphate]
[1]
  Amount of Active, Receptor: 47.66 µg and 122.75 µg and 14.62 µg and 23.47 µg and 24.99 µg and 25.43 µg
  Amount of Active, TS # 1, 2: 92.41 µg and 50.37 µg and 103.88 µg and 132.28 µg and 48.43 µg and 89.89 µg
  Amount of Active, TS # 3-15: 89.22 µg and 2.94 µg and 115.27 µg and 43.90 µg and 8.71 µg and 50.43 µg
  Amount of Active, TS Total: 181.63 µg and 53.31 µg and 219.15 µg and 176.18 µg and 57.14 µg and 140.32 µg
  Amount of Active, Viable Skin: 33.94 µg and 4.55 µg and 56.67 µg and 8.44 µg and 19.24 µg and 10.30 µg
  Total TS # 3-15 + Viable Skin: 123.16 µg and 7.49 µg and 171.94 µg and 52.34 µg and 27.95 µg and 60.73 µg
  Total TS # 3-15 + Viable skin: 183.82 μg/cm2 and 11.18 μg/cm2 and 256.63 μg/cm2 and 78.12 μg/cm2 and 41.72 μg/cm2 and 10.89 μg/cm2
[2]
  Amount of Active, Receptor (transferred through the skin): 43 µg and 43.15 µg
  Amount of Active, TS # 1, 2: 73.77 µg
  Amount of Active, TS # 3-15: 42.06 µg
  Amount of Active, TS Total: 115.82 µg
  Amount of Active, Viable Skin: 23 µg and 23.07 µg
  Total TS # 3-15 + Viable Skin (amount in the skin): 65 µg and 65.13 µg
  Total TS # 3-15 + Viable skin: 97.21 μg/cm2
Iontophoretic System, 3%, 0.150 mA/cm^2, 30 minutes, mean
  total amount found in the skin (TS#1-15+ Viable skin): 139 µg
[3]
  mean amount found in the receptor: 2 µg
  mean amount found in the viable skin: 1 µg
  mean total amount found in tape strippings #1-15, compared with Iontophoretic System: in the same order of magnitude
